The record followed here is patent US6756401B2, “Compositions and methods for treating osteoporosis and lowering cholesterol” (Pfizer Inc., priority 2000, dated 2004).

SMILES strings stand for the structures.

In test [1] the test system is OVX rats. Put plainly: Ovariectomized rat model: serum osteocalcin by radioimmunoassay. It counts as in vivo. The conditions noted are these: daily for 4 weeks. The text has this:
(§1) In women, estrogen deficiency during the menopause results in increased bone turnover leading to bone loss. Ovariectomy in rats produces estrogen deficiency and increased bone turnover leading to trabecular bone loss similar to that observed in post-menopausal women (Kalu, D. N., Bone and Mineral 1991 ;15:175; Frost, H. M., Jee W. S. S., Bone and Mineral 1992;18:227; Wronski, T. J., Yen, C-F, Cells Materials 1991;(suppl. 1):69). The OVX rat is thus an appropriate model to evaluate compounds for the prevention and treatment of post-menopausal osteoporosis. The ability of PPTN to inhibit estrogen deficiency bone loss was assessed in 5-month-old OVX rats, since ovariectomy causes significant bone loss in the lumbar vertebrae, proximal tibia, and distal femoral metaphyses (Ke, H. Z., et al., Endocrin 1995;136:2435; Chen, H. K., et al., J Bone Miner Res 1995;10:1256).
Five-month-old OVX female rats were treated with PPTN at oral doses of 0.733, 7.33, 73.3, and 733 μg/kg/day, or 17α-ethynyl estradiol (EE) at 30 μg/kg/day (10 rats per subgroup) daily for 4 weeks. […] The effects of PPTN on the following end points were determined: (a) serum osteocalcin, a biochemical marker of bone turnover, (b) bone mineral density of lumbar vertebrae and distal femoral metaphyses, (c) bone histomorphometry of fifth lumbar vertebral body and proximal tibial metaphyses. […]

For test [2], the system named is OVX rats. Put plainly: Ovariectomized rat model: histomorphometry of proximal tibial metaphyses. It counts as in vivo. The conditions noted are these: 4 weeks.
Source text: as §1
(§2) Five-month-old OVX female rats were treated with PPTN at oral doses of 0.733, 7.33, 73.3, and 733 μg/kg/day, or 17α-ethynyl estradiol (EE) at 30 μg/kg/day (10 rats per subgroup) daily for 4 weeks. The oral treatment began 1 day after surgery. Groups of vehicle-treated sham rats (n=10) and vehicle-treated OVX rats (n=10) served as controls. Calcein at 10 mg/kg was injected s.c. to all rats 12 and 2 days before necropsy as a fluorochrome bone marker to measure bone dynamic histomorphometric parameters. The effects of PPTN on the following end points were determined: (a) serum osteocalcin, a biochemical marker of bone turnover, (b) bone mineral density of lumbar vertebrae and distal femoral metaphyses, (c) bone histomorphometry of fifth lumbar vertebral body and proximal tibial metaphyses.
In order to determine the effect of PPTN on long bone metaphyses, histomorphometric analyses were performed on the proximal tibiae.

In test [3] the test system is OVX rats. Briefly: Ovariectomized rat model: lumbar vertebrae BMD by dual-energy X-ray absorptiometry. It is filed as in vivo. The conditions noted are these: 4 weeks.
Source text: as §1, §2
The first to the sixth lumbar vertebrae from each rat were removed during necropsy. These were then scanned ex vivo using dual-energy X-ray absorptiometry. The scan images were analyzed, and bone area, bone mineral content (BMC), and bone mineral density (BMD) of whole lumbar vertebrae (WLV), and LV1 through LV6 were determined. […] The changes in BMC were similar to those observed in BMD. […]

In test [4] the test system is MDA-MB-231 cells. Put plainly: Inhibition of in vitro human breast tumor cell growth, ER-negative cells. It is filed as cell-based. The conditions noted are these: MDA-MB-231 (ER-negative), 6 days incubation, direct cell counts. On the procedure:
The in vitro antiproliferative effects of (−)-cis-6-phenyl-5-[4-(2-pyrrolidin-1-yl-ethoxy)-phenyl]-5,6,7,8-tetrahydro-naphthalene-2-ol (PPTN) were tested using two types of human breast cancer cell lines: first, MCF-7 cells, which contain ER as well as progesterone receptors (PgR), and second, MDA-MB-231 cells, which lack ER and PgR, and enable the determination of an effect that is independent of the ER mechanism. The effect of PPTN on the growth of these different cell lines was determined by incubation of the cells with various compound concentrations for 6 days.
The antiproliferative effects were then determined by direct cell counts. PPTN inhibited the growth of the ER-positive cell line MCF-7.

Test [5] has as its system OVX rats. Put plainly: Ovariectomized rat model: bone histomorphometry of fifth lumbar vertebral body. It is filed as in vivo. The conditions noted are these: 4 weeks.
Source text: as §1, §2
In order to understand the cellular mechanism of bone-protective effects of PPTN at the tissue level, bone histomorphometric methods were used to determine the effects of PPTN on cancellous bone of the fifth lumbar vertebral body in OVX rats. Ovariectomy caused significant decreases in trabecular bone volume (trabecular bone area divided by marrow space area, expressed as percent) and trabecular number, and a significant increase in trabecular separation of the fifth lumbar vertebral body.

Test [6] deals with OVX rats. Put plainly: Ovariectomized rat model: femur BMD by dual-energy X-ray absorptiometry. It is filed as in vivo. The conditions noted are these: 4 weeks.
Source text: as §1, §2
Using dual-energy X-ray absorptiometry, the right femur of each rat was scanned ex vivo. Bone mineral density (BMD) of the distal femoral metaphyses (second 0.5 cm from the distal end of femur) and the proximal femur (the first 0.5 cm from the proximal end of femur, which contains the femoral head, neck, and greater trochanter) was determined.

[7] abbreviates: PPTN at doses ≧7.33 μg/kg/day oral.
Setting [8] is: PPTN at 7.33, 73.3, or 733 μg/kg/day oral.

`Oc1ccc2c(c1)CC[C@H](c1ccccc1)[C@@H]2c1ccc(OCCN2CCCC2)cc1` [PPTN, (−)-cis-6-phenyl-5-[4-(2-pyrrolidin-1-yl-ethoxy)-phenyl]-5,6,7,8-tetrahydro-naphthalene-2-ol]: in test [1] (setting [7]), the “increase in serum osteocalcin concentration after ovariectomy” value was “completely prevented”. In addition, in test [2] (PPTN at 0.733 μg/kg/day oral), the “percent osteoclast surface compared with OVX controls” value is reported as “decreased significantly”, the “prevention of bone loss in proximal tibiae” value is on record as “failed to do so” and the “proximal tibial trabecular bone volume” value is “no significant effect”. In test [2] (setting [8]), the “osteoclast number per millimeter of bone surface compared with both sham and OVX controls” value is “significantly decreased”; the “percent osteoclast surface compared with both sham and OVX controls” value is “significantly decreased”. Moreover, in test [2] (PPTN at doses of 7.33 to 733 μg/kg/day oral), the “bone turnover rate in proximal tibial trabecular bone” value is listed as “did not differ from sham controls”. For the same compound, the “proximal tibial trabecular bone volume compared with OVX controls” value in test [2] (setting [7]) is recorded as “significantly greater”. For the same compound, the “lumbar vertebral BMD compared with both sham and OVX controls” value in test [3] (PPTN 73.3 μg/kg/day oral) was “increased significantly”. For the same compound, the “decrease in lumbar vertebral BMD after ovariectomy” value in test [3] (PPTN at all dose levels (0.733 to 733 μg/kg/day oral)) is “completely prevented the decrease”. Also, in test [4], the “inhibition of cell proliferation” value is “did not inhibit cell proliferation”. The “ED50 in preserving lumbar vertebral cancellous bone mass and structure” value in test [5] (OVX rats, oral, lumbar vertebrae) is on record as “less than 0.733 μg/kg/day”. The “bone loss in lumbar vertebrae” value in test [5] (PPTN at 0.733 μg/kg/day oral) is recorded as “completely prevented bone loss”. The “trabecular number of fifth lumbar vertebral body compared with sham controls” value in test [5] (PPTN at 73.3 or 733 μg/kg/day oral) is given as “significantly increased”. Moreover, in test [5] (PPTN at all dose levels, oral), the “bone turnover rate, lumbar vertebral body” value was “did not differ from sham controls”; the “ovariectomy-induced increase in bone formation rate (BFR)” value was “inhibited this increase”; the “percent eroded surface (index of osteoclastic bone resorption) compared with sham controls” value is listed as “significantly decreased”. The “ovariectomy-induced changes in trabecular bone volume, trabecular number and trabecular separation of fifth lumbar vertebral body” value in test [5] (all doses of PPTN (0.733 to 733 μg/kg/day oral)) is “completely prevented”. Further, in test [6] (PPTN at 0.733 or 7.33 μg/kg/day oral), the “BMD of distal femoral metaphyses and proximal femur” value was “did not differ from OVX controls”. Further, the “decreases in BMD of distal femoral metaphyses and proximal femur” value in test [6] (PPTN at both 73.3 and 733 μg/kg/day oral) is “completely prevented the decreases”.
On to `C#C[C@]1(O)CC[C@H]2[C@@H]3CCc4cc(O)ccc4[C@H]3CC[C@@]21C` [EE, 17α-ethynyl estradiol, reference compound], for which the “increase in serum osteocalcin concentration after ovariectomy” value in test [1] (EE 30 μg/kg/day oral) is recorded as “completely prevented”. Besides, in test [2] (EE 30 μg/kg/day oral), the “bone turnover rate in proximal tibial trabecular bone” value is recorded as “did not differ from sham controls”; the “osteoclast number per millimeter of bone surface compared with both sham and OVX controls” value is given as “significantly decreased”; the “percent osteoclast surface compared with both sham and OVX controls” value is “significantly decreased”. In test [3] (EE 30 μg/kg/day oral), the “decrease in lumbar vertebral BMD after ovariectomy” value is given as “completely prevented the decrease”. For the same compound, in test [5] (EE 30 μg/kg/day oral), the “bone turnover rate, lumbar vertebral body” value is recorded as “did not differ from sham controls”; the “ovariectomy-induced changes in trabecular bone volume, trabecular number and trabecular separation of fifth lumbar vertebral body” value is on record as “completely prevented”; the “ovariectomy-induced increase in bone formation rate (BFR)” value is “inhibited this increase”; the “percent eroded surface (index of osteoclastic bone resorption) compared with sham controls” value was “significantly decreased”. For the same compound, in test [5] (EE 30 μg/kg/day oral), the “trabecular number of fifth lumbar vertebral body compared with sham controls” value is “significantly increased”. Further, in test [6] (EE 30 μg/kg/day oral), the “decrease in BMD of distal femoral metaphyses after ovariectomy” value was “prevented the decrease” and the “proximal femoral BMD” value was “had no effect”.
